Common to all, as to assay type: cell-based, mouse
Experiment [1] has as its system α7 integrin (LacZ reporter in α7+/LacZ myotubes). In words: Myotube α7 integrin FDG assay (Burkin assay in myotubes, 96-well). To be noted: for Burkin Assay in Myotubes, value relative to DMSO: SU9516 analogs, 96-well, N=3-6.
For experiment [2], the system named is α7 integrin (LacZ reporter in α7βgal+/− myoblasts). Kind of experiment: Myoblast α7+/LacZ integrin FDG assay (Burkin assay in myoblasts, 96-well). To be noted: 96-well; for Burkin Assay in Myoblasts, signal relative to DMSO: α7+/LacZ myoblasts; for Burkin Assay in Myoblasts, value relative to DMSO: SU9516 analogs, N=3-6.
For experiment [3], the system named is β-galactosidase in CMV-LacZ C2C12 myotubes. Kind of experiment: CMV-LacZ secondary screen in C2C12 myotubes (β-Gal stabilizing assay). To be noted: for CMV-LACZ in Myotubes, signal relative to DMSO: C2C12 CMV-LacZ myotubes, fold relative to DMSO; for CMV-LACZ in Myotubes, value relative to DMSO: SU9516 analogs, C2C12 CMV-LacZ, N=2. The method, boiled down:
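Stable CMV-LacZ C2C12 clone; six-point curve 0.5–40 μM; duplicates.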

Experiment [4] has as its system β-galactosidase in CMV-LacZ C2C12 myoblasts. Kind of experiment: CMV-LacZ secondary screen in C2C12 myoblasts (β-Gal stabilizing assay). To be noted: for CMV-LACZ in Myoblasts (β-galactosidase activity relative to DMSO): CMV-LacZ C2C12 myoblasts; for CMV-LACZ in Myoblasts, value relative to DMSO: SU9516 analogs, C2C12 CMV-LacZ, N=2. In outline: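 CMV-LacZ C2C12 line (clonal, FDG-screened); myoblasts/myotubes dosed 0.5–40 μM (0.5, 1, 5, 10, 20, 40 μM); n=2 per point; β-gal stabilization read-out.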

As for `Cc1noc(C)c1COc1ccc(C(=O)NCCc2ccccn2)cc1` [MLS001061374-01], the “Burkin Assay in Myotubes, α7 integrin LacZ reporter signal relative to DMSO” value was 1.058 in experiment [1] (0.5 uM); 1.092 in experiment [1] (1 uM); 1.004 in experiment [1] (5 uM); 1.181 in experiment [1] (10 uM); 0.732 in experiment [1] (20 uM); 0.8155 in experiment [1] (40 uM). Moreover, the “Burkin Assay in Myoblasts, signal relative to DMSO” value in experiment [2] (0.5 uM) is reported as 0.8477; in experiment [2] (1 uM), 0.8448; in experiment [2] (5 uM), 0.9826; in experiment [2] (10 uM) it was 1.169; in experiment [2] (20 uM), 0.873; in experiment [2] (40 uM), 0.6774. Besides, the “CMV-LACZ in Myotubes, signal relative to DMSO” value was 1.2568 in experiment [3] (0.5 uM); 1.1000 in experiment [3] (1 uM); 1.1237 in experiment [3] (5 uM); 0.8498 in experiment [3] (10 uM); 1.1689 in experiment [3] (20 uM); 1.0489 in experiment [3] (40 uM). Moreover, the “CMV-LACZ in Myoblasts (β-galactosidase activity relative to DMSO)” value is 0.7117 in experiment [4] (0.5 uM); 1.1702 in experiment [4] (1 uM); 1.0601 in experiment [4] (5 uM); 0.9793 in experiment [4] (10 uM); 0.9744 in experiment [4] (20 uM); 1.1037 in experiment [4] (40 uM).
As to `Cc1cc(C)c(/C=C2\C(=O)Nc3ccccc32)[nH]1` [NCGC00094381-03], the “Burkin Assay in Myotubes, value relative to DMSO” value is on record as 0.8564 in experiment [1] (0.5 uM); 0.9334 in experiment [1] (1 uM); 0.9015 in experiment [1] (5 uM); 1.024 in experiment [1] (10 uM); 0.9497 in experiment [1] (20 uM); 1.151 in experiment [1] (40 uM). The “Burkin Assay in Myoblasts, value relative to DMSO” value came to 0.9368 in experiment [2] (0.5 uM); 0.9952 in experiment [2] (1 uM); 0.7327 in experiment [2] (5 uM); 0.6579 in experiment [2] (10 uM); 0.6668 in experiment [2] (20 uM); 0.5203 in experiment [2] (40 uM). For the same compound, the “CMV-LACZ in Myotubes, value relative to DMSO” value in experiment [3] (0.5 uM) turned out to be 0.9227; in experiment [3] (1 uM) it was 1.2227; in experiment [3] (5 uM), 1.1125; in experiment [3] (10 uM), 1.5444; in experiment [3] (20 uM), 10.9800; in experiment [3] (40 uM) it was 18.6030. Also, the “CMV-LACZ in Myoblasts, value relative to DMSO” value is 0.9504 in experiment [4] (0.5 uM); 0.8667 in experiment [4] (5 uM); 1.0089 in experiment [4] (10 uM); 0.7777 in experiment [4] (20 uM); 1.0253 in experiment [4] (40 uM).

Values taken from patent US9980943B2, “Methods of treating muscular dystrophy” (BOARD OF REGENTS OF THE NEVADA SYSTEM OF HIGHER EDUCATION, …, priority 2013, dated 2018).
